Reference: PMC9605497, “Potential of Epidermal Growth Factor-like Peptide from the Sea Cucumber Stichopus horrens to Increase the Growth of Human Cells: In Silico Molecular Docking Approach” (Marine Drugs, 2022)

Test system: EGF/PDGF pathway genes
Assay: qPCR array of EGF/PDGF pathway genes
Type: cell-based, human
Set-up: key to expression class: +: Maximum expression; −: Minimum expression; unc.: Unchanged
Settings: 10 nM, 4 h; for fold change: vs serum-free medium
Method: Cells were seeded at 80,000 cells per well of 24-well plates in 400 µL of complete growth medium. Cells were grown in MEM basal medium supplemented with 10% FBS and 1% antibiotic–antimycotic in a humidified incubator at 37 °C, equilibrated with 5% CO2. After 24 h of culture, the medium was removed, washed once with PBS, replaced with serum-free medium and left to culture for another 16 h. Medium was removed and replaced with corresponding treatment medium each in triplicates; 10 nM and 50 nM of Sh-EGFl-1, 10 nM and 50 nM of rhEGF were used as a positive control and serum-free medium was used as a negative control. Cells were harvested after 4 h. Medium was removed and 200 μL of Trizol reagent (Thermo Scientific, Waltham, MA, USA) was immediately added.
RNA extraction was performed according to Trizol reagent manufacturer’s protocol. An elution volume of 15 μL RNase-free water was added before the concentration and purity were determined using NanoDrop.
A total of 100 ng RNA was used initially for the cDNA synthesis reaction. The reaction was carried out according to RT^2 First Strand Kit’s protocol (Qiagen, Venlo, Netherlands). Genomic DNA was removed according to the manufacturer’s protocol prior to cDNA strand generation.
The 10 μL cDNA of human skin cells was diluted with 91 μL prior to qPCR reaction. Primer pairs of 84 genes involved in the EGF pathway, five housekeeping genes such as ribosomal protein large, P0 (RPL0), glyceraldehyde-3-phosphate-dehydrogenase (GAPDH), beta-actin (ACTB), beta-2-microglobulin (B2M) and hypoxanthine phosphoribosyltransferase 1 (HPRT1), one positive control gene for genomic DNA contamination, three reverse transcription control genes and three PCR-positive controls were included in the Qiagen PAHS-040ZA qPCR array plate (Qiagen, Venlo, Netherlands). A list of all genes analyzed in this study is available in Supplementary Materials Table S7. The mixture reaction was prepared according to the protocol and run using BioRad CFX96TM. Samples of 10 nM rhEGF and 10 nM Sh-EGFl-1 were prepared in duplicates. The following thermal profile was applied: 1 cycle at 95 °C for 10 min, 40 cycles at 95 °C for 15 s, 60 °C for 1 min, with the ramp rate from 95 °C to 60 °C was set at 1 °C every second. The data were then analyzed through Qiagen web portal. Data for serum-free medium were selected as a control group and the differences in gene expression between control and treatment groups were calculated using the 2^(−delta delta CT) method. The difference, known as fold change, was obtained from the delta delta CT values, which are the genes of interest and the average housekeeping genes, followed by the delta delta CT (delta CT (treatment group)—delta CT (control group)).

[1] = IKBKB (IKK), PLC gamma signaling
[2] = PLCG1 (PLC), PLC gamma signaling
[3] = PPP2CA (TSC2), PLC gamma signaling
[4] = RASA1 (p120GAP), MAPK signaling
[5] = RPS6KA5 (p70S6K), MAPK signaling
[6] = RPS6KA5 (p70S6K), PI3K signaling
[7] = RPS6KA5 (p70S6K), PLC gamma signaling
[8] = RPS6KB1 (p70S6K), MAPK signaling
[9] = RPS6KB1 (p70S6K), PI3K signaling
[10] = RPS6KB1 (p70S6K), PLC gamma signaling

H-MNSDSECPLSHDGYCLHDGVCMYIEALDKYACNCVVGYIGERCQYRDLKWWELR-OH (disulfide) [rhEGF, Recombinant human EGF purchased from Thermo Scientific, reference compound]
(0.95): fold change (MAP2K7 (MKK7), MAPK signaling)
(0.78): fold change (PRKCA, PLC gamma signaling)
(0.90): fold change (NFKB, PI3K signaling) | fold change (NFKB, PLC gamma signaling)
(0.77): fold change (ELK1, JAK-STAT signaling) | fold change (JAK1, JAK-STAT signaling)
(0.88): fold change (GAB1, PI3K signaling)
(0.86): fold change (PDPK1 (PDK1), PI3K signaling)
(0.83): fold change (CCND1, PI3K signaling) | fold change [4]
(1.02): fold change (FOS, JAK-STAT signaling)
(0.82): fold change (MAP3K2 (MEKK2), MAPK signaling) | fold change (TP53, MAPK signaling) | fold change (TP53, PI3K signaling)
opposite gene expression profile: gene expression profile, EGF/PDGF pathway (qPCR array heat map)
(0.96): fold change (CBL, MAPK signaling) | fold change (NFATC3, MAPK signaling)
unc.: expression class (JUN, JAK-STAT signaling) | expression class [5] | expression class [6] | expression class [7] | expression class (TP53, MAPK signaling) | expression class (TP53, PI3K signaling)
(0.70): fold change (CASP3, MAPK signaling)
(0.76): fold change (GRB2, PI3K signaling) | fold change (MAPK1 (ERK2), MAPK signaling)
(0.84): fold change (GSK3B, PI3K signaling) | fold change (RHOA, Rho signaling)
(0.75): fold change (GSK3A, PI3K signaling) | fold change (PIK3R2, PI3K signaling) | fold change [5] | fold change [6] | fold change [7]
(0.89): fold change [2] | fold change (STAT3, JAK-STAT signaling) | fold change (STAT5, JAK-STAT signaling)
(0.51): fold change (MAP2K4 (MKK4), MAPK signaling)
(0.74): fold change (DUSP6, MAPK signaling) | fold change (MAP2K1 (MEK1), MAPK signaling)
(0.79): fold change (MAPK3 (ERK1), MAPK signaling)
(0.87): fold change (AKT3, PI3K signaling) | fold change (ATF1, MAPK signaling)
(0.98): fold change (JUN, JAK-STAT signaling)
(0.62): fold change (HRAS, MAPK signaling)
(0.54): fold change (MAPK9, MAPK signaling) | fold change (MKNK1, MAPK signaling)
(1.24): fold change (E1F4E, PI3K signaling) | fold change (MAPK10, MAPK signaling)
−: expression class (AKT1, PI3K signaling) | expression class (AKT3, PI3K signaling) | expression class (ATF1, MAPK signaling) | expression class (ATF2, MAPK signaling) | expression class (CASP3, MAPK signaling) | expression class (CASP9, MAPK signaling) | expression class (CBL, MAPK signaling) | expression class (CCND1, PI3K signaling) | expression class (DUSP1, MAPK signaling) | expression class (DUSP6, MAPK signaling) | expression class (ELK1, JAK-STAT signaling) | expression class (FOS, JAK-STAT signaling) | expression class (GRB2, PI3K signaling) | expression class (GSK3A, PI3K signaling) | expression class (GSK3B, PI3K signaling) | expression class (HRAS, MAPK signaling) | expression class (IKBKB (IKK), PI3K signaling) | expression class [1] | expression class (IKBKB, MAPK signaling) | expression class (JAK1, JAK-STAT signaling) | expression class (MAP2K1 (MEK1), MAPK signaling) | expression class (MAP2K4 (MKK4), MAPK signaling) | expression class (MAP3K2 (MEKK2), MAPK signaling) | expression class (MAPK1 (ERK2), MAPK signaling) | expression class (MAPK3 (ERK1), MAPK signaling) | expression class (MAPK8, MAPK signaling) | expression class (MAPK9, MAPK signaling) | expression class (MKNK1, MAPK signaling) | expression class (NFATC3, MAPK signaling) | expression class (NFKB, PI3K signaling) | expression class (NFKB, PLC gamma signaling) | expression class (P13KCA, PI3K signaling) | expression class (PDPK1 (PDK1), PI3K signaling) | expression class (PIK3R1, PI3K signaling) | expression class (PIK3R2, PI3K signaling) | expression class [2] | expression class [3] | expression class (PRKCA, PLC gamma signaling) | expression class (RAP1A, MAPK signaling) | expression class [4] | expression class (RHOA, Rho signaling) | expression class [8] | expression class [9] | expression class [10] | expression class (SHC1, MAPK signaling) | expression class (SHC1, PI3K signaling) | expression class (STAT3, JAK-STAT signaling) | expression class (STAT5, JAK-STAT signaling)
(0.50): fold change (DUSP1, MAPK signaling)
+: expression class (E1F4E, PI3K signaling) | expression class (GAB1, PI3K signaling) | expression class (MAP2K7 (MKK7), MAPK signaling) | expression class (MAPK10, MAPK signaling) | expression class (SRC, JAK-STAT signaling)
(1.16): fold change (SRC, JAK-STAT signaling)
(0.68): fold change [8] | fold change [9] | fold change [10]
(0.63): fold change (CASP9, MAPK signaling)
(0.73): fold change (IKBKB (IKK), PI3K signaling) | fold change [1] | fold change (IKBKB, MAPK signaling) | fold change (MAPK8, MAPK signaling)
(0.80): fold change (PIK3R1, PI3K signaling) | fold change (RAP1A, MAPK signaling) | fold change (SHC1, MAPK signaling)
(0.67): fold change (ATF2, MAPK signaling)
(0.69): fold change (AKT1, PI3K signaling) | fold change [3]
(1.08): fold change (P13KCA, PI3K signaling)
